Values of other authors as cited in US10172810B2 (priority 2003, dated 2019).

Details: pH 6.8

CN1CCCC1c1cccnc1 (stereo not shown) [nicotine]
nicotine in the free base form: about 10%
